From ChEMBL document CHEMBL1201862, “PubChem BioAssay data set” (2004)
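Exposure lasted 48 hours, with cells grown in 96-well plates and compounds tested at five concentrations. Here, GI50 denotes the concentration required for 50% inhibition of growth.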 Active and inactive are the calls of the source. Rule as the data show it: active = GI50 up to about 1.1 µM and inactive = higher. Non-standard residues stand in square brackets, D forms with d. Residues, ends and D or L forms follow the SMILES beside them. *: point of attachment. Bn2Val = CC(C)[C@@H](C(=O)*)N(Cc1ccccc1)Cc1ccccc1; NH(4-Cl-benzyl) = Clc1ccc(CN*)cc1; NMeV = CN[C@H](C(=O)O)C(C)C; dNMeA = CN[C@H](C)C(=O)O

Experiments:
Test in all cases: growth of human tumour cells (NCI), 48 h
[1] = test system: HCT-116
[2] = test system: HCT-15
[3] = test system: HOP-92
[4] = test system: HT-29
[5] = test system: IGROV-1
[6] = test system: MOLT-4
[7] = test system: PC-3
[8] = test system: SF-295
[9] = test system: SK-MEL-28
[10] = test system: SK-MEL-5
[11] = test system: SN12C
[12] = test system: SNB-19
[13] = test system: SNB-75
[14] = test system: SW-620
[15] = test system: TK-10
[16] = test system: UO-31
[17] = test system: A498
[18] = test system: K562
[19] = test system: OVCAR-3
[20] = test system: RPMI-8226

| Compound | GI50 [1] | GI50 [2] [µM] | GI50 [3] | GI50 [4] | GI50 [5] | GI50 [6] | GI50 [7] | GI50 [8] | GI50 [9] | GI50 [10] | GI50 [11] | GI50 [12] | GI50 [13] | GI50 [14] | GI50 [15] | GI50 [16] | GI50 [17] | GI50 [18] | GI50 [19] | GI50 [20] |
| --- | --- | --- | --- | --- | --- | --- | --- | --- | --- | --- | --- | --- | --- | --- | --- | --- | --- | --- | --- | --- |
| COC(=O)c1cn(CCCC(=O)O)nn1 | > 100 µM (inactive) | > 100 | > 100 µM (inactive) | > 100 µM (inactive) | > 100 µM (inactive) | > 100 µM (inactive) | > 100 µM (inactive) | > 100 µM (inactive) | > 100 µM (inactive) | > 100 µM (inactive) | > 100 µM (inactive) | > 100 µM (inactive) | > 100 µM (inactive) | > 100 µM (inactive) | > 100 µM (inactive) | > 100 µM (inactive) |  |  |  |  |
| COc1ccccc1NC(=O)C1=C(C)NC(C)=C(C(=O)Nc2ccccc2OC)C1c1ccccc1OC | 38.9 µM (inactive) | > 100 | > 100 µM (inactive) | > 100 µM (inactive) | > 100 µM (inactive) | 54.5 µM (inactive) |  | > 100 µM (inactive) | > 100 µM (inactive) | > 100 µM (inactive) | > 100 µM (inactive) | > 100 µM (inactive) | 19.3 µM (inactive) | > 100 µM (inactive) | > 100 µM (inactive) | > 100 µM (inactive) | > 100 µM (inactive) | 60.5 µM (inactive) | 80.4 µM (inactive) | 75.9 µM (inactive) |
| C=C(Br)CNCC(=C)Br | 68.1 µM (inactive) | > 100 |  | 90.6 µM (inactive) | > 100 µM (inactive) | 48.6 µM (inactive) | 50.5 µM (inactive) | > 100 µM (inactive) | > 100 µM (inactive) | 89.7 µM (inactive) | > 100 µM (inactive) | > 100 µM (inactive) | 68.5 µM (inactive) | > 100 µM (inactive) | > 100 µM (inactive) | > 100 µM (inactive) | > 100 µM (inactive) | 38 µM (inactive) | 30.8 µM (inactive) | 51.9 µM (inactive) |
| CCN(CC)c1ccc2cc(C(=O)Nc3ccccc3OC)c(=N)oc2c1 | 15.4 µM (inactive) | 19.7 |  | 12.9 µM (inactive) | 7.55 µM (inactive) | 3.24 µM (inactive) | 11.8 µM (inactive) | 33.9 µM (inactive) | 32.9 µM (inactive) | 32.1 µM (inactive) |  | 16.1 µM (inactive) |  | 8.67 µM (inactive) |  | 0.321 µM (active) | 31.3 µM (inactive) | 18.5 µM (inactive) | 43.2 µM (inactive) | 15.9 µM (inactive) |
| S=C1SC(=N\c2ccccc2)/C(=N/c2ccccc2)N1c1ccc2ccccc2c1 | 12.1 µM (inactive) | 93.3 |  |  | > 100 µM (inactive) |  | > 100 µM (inactive) | > 100 µM (inactive) | > 100 µM (inactive) | 38.1 µM (inactive) | > 100 µM (inactive) | > 100 µM (inactive) | 74.8 µM (inactive) |  |  | > 100 µM (inactive) | > 100 µM (inactive) | > 100 µM (inactive) | > 100 µM (inactive) | > 100 µM (inactive) |
| O=C1C=C(NCCc2cc(Br)c(O)c(Br)c2)C(=O)c2[nH]cnc21 | 7.35 µM (inactive) | 18 | 29.7 µM (inactive) | 26.9 µM (inactive) | 17.6 µM (inactive) | > 10 µM (inactive) | 3.69 µM (inactive) | 30.5 µM (inactive) | 39.7 µM (inactive) | 15.6 µM (inactive) | 26.2 µM (inactive) | 36.1 µM (inactive) | 21.9 µM (inactive) | 21.6 µM (inactive) | 89.7 µM (inactive) | 75 µM (inactive) |  | 14.9 µM (inactive) | 21.6 µM (inactive) | > 10 µM (inactive) |
| COc1cc2c(oc(=O)c3cc4ccoc4c(OC)c32)c2cccc(O)c12 | > 100 µM (inactive) | > 100 | > 100 µM (inactive) | > 100 µM (inactive) | > 100 µM (inactive) | > 100 µM (inactive) |  | > 100 µM (inactive) | > 100 µM (inactive) | > 100 µM (inactive) | > 100 µM (inactive) | > 100 µM (inactive) | 60.3 µM (inactive) | > 100 µM (inactive) | > 100 µM (inactive) | > 100 µM (inactive) | > 100 µM (inactive) | > 100 µM (inactive) | > 100 µM (inactive) | > 100 µM (inactive) |
| O=[N+]([O-])c1ccc(/C=N\N=c2/ccc([N+](=O)[O-])c[nH]2)cc1 | > 100 µM (inactive) | > 100 | > 100 µM (inactive) | > 100 µM (inactive) | > 100 µM (inactive) | > 100 µM (inactive) | > 100 µM (inactive) | > 100 µM (inactive) | > 100 µM (inactive) | > 100 µM (inactive) | > 100 µM (inactive) | > 100 µM (inactive) | 90.6 µM (inactive) | > 100 µM (inactive) | > 100 µM (inactive) | > 100 µM (inactive) |  | > 100 µM (inactive) | > 100 µM (inactive) | > 100 µM (inactive) |
| O=C(O)C1(Cc2ccccc2)Cc2ccccc2C1 | > 100 µM (inactive) | > 100 |  | > 100 µM (inactive) | > 100 µM (inactive) | > 100 µM (inactive) | > 100 µM (inactive) | > 100 µM (inactive) | > 100 µM (inactive) | > 100 µM (inactive) | > 100 µM (inactive) | > 100 µM (inactive) | 10.6 µM (inactive) | > 100 µM (inactive) | > 100 µM (inactive) | > 100 µM (inactive) | > 100 µM (inactive) | > 100 µM (inactive) | > 100 µM (inactive) | > 100 µM (inactive) |
| O=C(CCN1CCCCC1)Nc1ccc2sc3ccccc3c(=O)c2n1 | 6.46 µM (inactive) | 15.1 | 0.411 µM (active) | 31.6 µM (inactive) | 13.4 µM (inactive) | 2.56 µM (inactive) | 11.9 µM (inactive) | 18.1 µM (inactive) | 16.7 µM (inactive) | 21.6 µM (inactive) | 12.3 µM (inactive) | 15.4 µM (inactive) | 10.5 µM (inactive) | 8.3 µM (inactive) | 15.7 µM (inactive) | 9.79 µM (inactive) |  | 6.38 µM (inactive) | 15.8 µM (inactive) | 6.04 µM (inactive) |
| CC(C)[C@H](NC(=O)[C@H](C(C)C)N(Cc1ccccc1)Cc1ccccc1)C(=O)N(C)[C@H](C(=O)N1CCC[C@H]1C(=O)N(C)[C@H](C)C(=O)NCc1ccc(Cl)cc1)C(C)C (Bn2Val-V[NMeV]P[dNMeA]-{NH(4-Cl-benzyl)}) | 3.02 µM (inactive) | 3.13 | 2.84 µM (inactive) | 1.74 µM (inactive) | 2.69 µM (inactive) | 2.42 µM (inactive) | 2.75 µM (inactive) | 3.11 µM (inactive) | 4.98 µM (inactive) | 3.89 µM (inactive) | 2.58 µM (inactive) | 4.24 µM (inactive) | 3.44 µM (inactive) | 3.72 µM (inactive) | 5.87 µM (inactive) |  |  | 4.04 µM (inactive) | 2.76 µM (inactive) | 2.69 µM (inactive) |
